Earlier results, collected in patent US20160088844A1 (priority 2013, published 2016).

Tested on: roots of plants; seeds of a variety of species
Details: in vivo

Cn1c(=O)c2c(ncn2C)n(C)c1=O [caffeine]
mitosis in the roots of plants: inhibit mitosis | seed germination in a variety of species: inhibit seed germination
